A word on the IC50: it is the concentration that inhibits the measured activity by half.

Like-named read-outs stand apart in the source and are kept apart here.

Here are results for one compound from patent publication US20220213092A1, “BICYCLIC PYRAZOLE BRUTON'S TYROSINE KINASE INHIBITORS” (AbbVie Inc., priority 2020, published 2022).

For one series, the target named is T1, BTK (Homo sapiens, UniProt Q06187).
T1 construct: purchased Nanosyn, Santa Clara, Calif; host or cells: 293HEK
The experiment in a line: BTK kinase electrophoretic mobility shift assay (MSA). It is filed as biochemical. As to conditions: 50 μM ATP, 0.5 nM BTK enzyme (Nanosyn-293HEK, WT), 3 hours at 25° C.; all examples except 50, 51, 62 and 63; read-out: BTK IC50.

The next series deals with ERBB4 (Homo sapiens, UniProt Q15303). The experiment in a line: biochemical. The procedure:
(§1) Kinase activity, unless otherwise indicated, was measured in vitro using an electrophoretic mobility shift assay (MSA). The phosphorylation of a peptide substrate by BTK and other kinases was measured. The kinase reactions were assembled in a total volume of 25 μL per well in 384 well plates. The following was added to each well: compound buffer (or control); enzyme buffer; and substrate buffer, as further described below.
(§2) Enzyme and compound/inhibitor were optionally pre-incubated. To each well was added: 8 μL of 2.5×ATP and substrate in 1× Master Buffer (1× Master Buffer as described above). The plate was incubated at room temperature for 3 hours. […] OG488 was Oregon Green dye, which was conjugated to the peptide substrate. […] The kinase activity for the kinases in Table 3 were measured at 3 hours incubation time, except that in the case of MAP2K1 and MAP2K2 assay, pre-activation of ERK was done for 30 min with 6 μM of ATP, and then the detection of activated ERK in the presence of compounds was done after 60 minutes of incubation.
(§3) The terminated reactions were analyzed using a 12 channel LABCHIP® 3000 microfluidic detection instrument (available from Caliper Life Sciences, Waltham, Mass.). […] Change in the relative fluorescence intensity of the substrate and product peaks was the parameter measured, reflecting enzyme activity. […]

A further series addresses EGFR (Homo sapiens, UniProt P00533). The experiment in a line: Other kinase MSA: EGFR. It is filed as biochemical. As to conditions: 5 μM ATP, CSKtide substrate, 3 hours; read-out: IC50, Enzyme EGFR. The procedure:
as §1, §2, §3

For series [1], the system named is human hepatocyte suspension. Briefly: Chemical inhibition in human hepatocytes (intrinsic clearance with and without CYP inhibitors). Format: in vitro ADME. As to the method: (§4) The contribution of CYPs to the metabolism of Compound 6 was evaluated in human hepatocyte suspension (about 500,000 cells/mL) (hepatocytes from BioIVT, Inc.) treated with or without azamulin (CYP3A4 mechanism-based inhibitor) or 1-aminobenzotriazole (ABT)/tienilic acid (a pan-CYP inhibitor regimen) for 30 minutes. The hepatocyte suspension with inhibitors was preincubated with 2× azamulin or 1-ABT/tienilic acid in Williams' media E and then added to 2× Compound 6 in media to give a final concentrations of 2.5 μM azamulin or 0.5 mM 1-ABT/1.5 μM tienilic acid and 0.5 μM Compound 6, respectively.
(§5) Final incubation volume was 25 μL. Samples were incubated in 384-well plates at 37° C. with 5% CO2 and gentle shaking. At each time point (0, 15, 30, 60, 120, and 240 minutes), samples in the incubation plates were quenched with acetonitrile:MeOH (95:5, v:v) with carbutamide as internal standard (quench ration 3:1). The samples were centrifuged, and the supernatant was analyzed using LC-MS/MS.
(§6) Quantitation of the substrate depletion in recombinant CYPs and FMO3 phenotyping, chemical inhibition in hepatocytes, and enzyme kinetics assays were analyzed by monitoring substrate depletion using LC-MS/MS.
(§7) The intrinsic clearance of Compound 6 in rCYP and hepatocytes was determined by integrating the parent peak on the chromatograms, and the extent of substrate depletion measured by comparing parent peak area loss over time. The elimination rate constant (k, transformation of % parent remaining versus incubation time: y=a*e^−(kt). Where y is the % parent remaining, t (min) is the time point within the incubation, and a is the % parent remaining at time 0 minute. From this, intrinsic clearance in rCYP (CLint, CYP, expressed in units of μL/min/pmol CYP) and in hepatocytes (CLint, hep, expressed in units of μL/min/million cells were derived using the equations below:
(§8) Clint,hep=k*1000/Cell Concentration (million cells/mL)
(§9) The fraction of metabolism inhibited by the chemical treatment in human hepatocytes was calculated using the equation:
(§10) fm,CYP=[Clint,hep(no inhibitor)−Clint,hep(PanCYP or azamulin])/[Clint, hep(no inhibitor)]

Assay in series [2]: as above
As to conditions: human, human hepatocyte suspension. It is filed as in vitro ADME. As to the method: as §4, §5, §6, §7, §8, §9, §10

T1 sequence (Q06187 whole entry): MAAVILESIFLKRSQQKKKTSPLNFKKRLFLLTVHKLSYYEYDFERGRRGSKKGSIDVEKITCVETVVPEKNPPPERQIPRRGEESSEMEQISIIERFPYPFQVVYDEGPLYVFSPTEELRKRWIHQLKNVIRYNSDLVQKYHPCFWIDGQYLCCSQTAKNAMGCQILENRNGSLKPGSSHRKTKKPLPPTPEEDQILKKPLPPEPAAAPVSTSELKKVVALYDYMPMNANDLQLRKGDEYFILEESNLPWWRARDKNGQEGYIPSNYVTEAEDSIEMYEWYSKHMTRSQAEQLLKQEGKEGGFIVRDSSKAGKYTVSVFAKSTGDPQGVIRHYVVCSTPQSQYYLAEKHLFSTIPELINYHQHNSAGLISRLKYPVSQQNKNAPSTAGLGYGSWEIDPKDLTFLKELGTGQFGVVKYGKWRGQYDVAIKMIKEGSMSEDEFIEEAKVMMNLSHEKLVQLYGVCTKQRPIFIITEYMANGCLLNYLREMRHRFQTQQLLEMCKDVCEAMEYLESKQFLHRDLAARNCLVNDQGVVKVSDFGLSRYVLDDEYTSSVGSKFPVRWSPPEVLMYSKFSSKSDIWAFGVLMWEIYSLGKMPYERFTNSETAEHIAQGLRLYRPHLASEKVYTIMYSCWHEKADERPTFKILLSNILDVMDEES
Chain of ERBB4 (Q15303 26-1308, species assumed): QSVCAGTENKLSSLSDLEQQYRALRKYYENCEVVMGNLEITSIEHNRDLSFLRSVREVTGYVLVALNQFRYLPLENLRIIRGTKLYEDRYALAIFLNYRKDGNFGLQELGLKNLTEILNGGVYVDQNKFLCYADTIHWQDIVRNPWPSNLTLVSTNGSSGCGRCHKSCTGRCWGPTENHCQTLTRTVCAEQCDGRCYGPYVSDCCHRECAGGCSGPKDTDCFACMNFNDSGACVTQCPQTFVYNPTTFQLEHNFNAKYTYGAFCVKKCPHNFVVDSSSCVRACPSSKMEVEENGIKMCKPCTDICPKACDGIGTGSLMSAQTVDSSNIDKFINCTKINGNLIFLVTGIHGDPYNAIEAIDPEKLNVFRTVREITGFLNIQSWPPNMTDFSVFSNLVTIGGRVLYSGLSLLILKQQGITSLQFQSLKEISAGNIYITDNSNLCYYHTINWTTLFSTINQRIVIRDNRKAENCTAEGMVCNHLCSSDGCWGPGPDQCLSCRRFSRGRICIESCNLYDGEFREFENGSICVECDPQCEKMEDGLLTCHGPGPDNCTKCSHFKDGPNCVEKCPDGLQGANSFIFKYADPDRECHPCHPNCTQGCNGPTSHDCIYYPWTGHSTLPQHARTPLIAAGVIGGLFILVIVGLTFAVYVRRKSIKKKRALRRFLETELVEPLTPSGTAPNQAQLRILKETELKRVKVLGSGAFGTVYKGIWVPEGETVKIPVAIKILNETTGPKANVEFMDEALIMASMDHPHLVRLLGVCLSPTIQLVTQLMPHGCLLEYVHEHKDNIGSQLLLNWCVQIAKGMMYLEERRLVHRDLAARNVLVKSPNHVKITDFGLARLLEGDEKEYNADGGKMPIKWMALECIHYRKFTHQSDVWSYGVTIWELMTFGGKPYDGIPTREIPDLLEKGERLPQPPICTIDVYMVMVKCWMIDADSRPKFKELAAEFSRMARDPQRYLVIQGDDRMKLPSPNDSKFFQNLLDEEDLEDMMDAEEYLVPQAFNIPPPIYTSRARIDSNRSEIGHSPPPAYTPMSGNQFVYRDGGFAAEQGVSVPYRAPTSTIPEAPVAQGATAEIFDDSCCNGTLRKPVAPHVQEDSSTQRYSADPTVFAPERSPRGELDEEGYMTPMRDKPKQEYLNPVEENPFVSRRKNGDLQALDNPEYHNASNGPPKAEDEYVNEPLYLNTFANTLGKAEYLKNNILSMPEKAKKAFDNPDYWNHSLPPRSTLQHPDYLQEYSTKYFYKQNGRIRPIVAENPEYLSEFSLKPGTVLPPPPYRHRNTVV
Chain of EGFR (P00533 25-1210, species assumed): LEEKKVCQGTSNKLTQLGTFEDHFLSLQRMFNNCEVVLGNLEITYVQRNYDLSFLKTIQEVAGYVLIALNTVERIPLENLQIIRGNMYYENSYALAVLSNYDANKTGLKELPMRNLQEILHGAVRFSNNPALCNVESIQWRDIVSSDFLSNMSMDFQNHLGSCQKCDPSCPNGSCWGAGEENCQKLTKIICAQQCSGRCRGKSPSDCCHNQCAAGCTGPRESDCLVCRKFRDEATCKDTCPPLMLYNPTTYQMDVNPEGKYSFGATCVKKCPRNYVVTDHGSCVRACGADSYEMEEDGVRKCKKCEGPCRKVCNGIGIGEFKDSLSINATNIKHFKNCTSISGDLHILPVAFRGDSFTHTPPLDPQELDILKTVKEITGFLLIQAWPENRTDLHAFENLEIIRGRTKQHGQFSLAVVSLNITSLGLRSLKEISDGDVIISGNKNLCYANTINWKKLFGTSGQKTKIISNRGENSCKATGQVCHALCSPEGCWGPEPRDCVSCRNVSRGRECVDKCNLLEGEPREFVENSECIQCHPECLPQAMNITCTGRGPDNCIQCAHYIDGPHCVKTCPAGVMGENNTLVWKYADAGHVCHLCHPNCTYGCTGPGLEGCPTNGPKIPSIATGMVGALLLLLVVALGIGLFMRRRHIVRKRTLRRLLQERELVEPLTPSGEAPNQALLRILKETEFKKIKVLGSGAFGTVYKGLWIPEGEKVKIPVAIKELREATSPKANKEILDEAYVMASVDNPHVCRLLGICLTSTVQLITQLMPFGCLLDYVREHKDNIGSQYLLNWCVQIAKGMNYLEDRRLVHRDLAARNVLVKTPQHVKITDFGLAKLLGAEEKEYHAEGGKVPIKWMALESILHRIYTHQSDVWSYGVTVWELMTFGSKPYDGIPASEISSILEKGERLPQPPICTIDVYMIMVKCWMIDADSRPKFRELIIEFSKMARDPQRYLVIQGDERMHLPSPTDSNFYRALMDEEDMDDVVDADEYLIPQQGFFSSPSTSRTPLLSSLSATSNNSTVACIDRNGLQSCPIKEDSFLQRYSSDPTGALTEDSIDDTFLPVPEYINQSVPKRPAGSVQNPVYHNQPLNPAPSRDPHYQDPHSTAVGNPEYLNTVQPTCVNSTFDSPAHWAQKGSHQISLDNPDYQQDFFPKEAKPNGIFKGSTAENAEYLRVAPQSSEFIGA

For `C=CC(=O)N1CCN([C@@H]2CCNc3c2nn(-c2ccc(Oc4ccccc4)cc2)c3C(N)=O)CC1` [Example 6, (7R)-2-(4-phenoxyphenyl)-7-[4-(prop-2-enoyl)piperazin-1-yl]-4,5,6,7-tetrahydro-2H-pyrazolo[4,3-b]pyridine-3-carboxamide], the IC50 is 1.1 nM on BTK, 757 nM at ERBB4 and 844 nM on EGFR. Besides, in series [1] (calculated from the PAN CYP inhibitor regimen of 1-ABT and tienilic acid, human hepatocyte suspensions), the “% Total CYP Contribution In Vitro” value is 38.3%. In addition, the “CYP contribution to the hepatic metabolism” value in series [1] (following incubation with a pan-CYP inhibitor cocktail in human hepatocytes) is on record as “approximately 30%”. Also, in series [1] (fraction of clearance in human hepatocytes inhibited by azamulin), the “% Inhibition by azamulin” value amounted to 31.4%. Further, the “non-CYP hepatic enzymes contribution to the remaining clearance” value in series [1] (human hepatocytes) is “about 70%”. The hepatocyte CLint at 0.5 μM in series [2] (0.5 μM Compound 6, 0.5 mM 1-ABT/1.5 μM tienilic acid, read-out: CLint, PAN CYP) stood at 8.23 µL/min/1e6 cells; in series [2] (0.5 μM Compound 6, no inhibitor, read-out: CLint, no inhibitor) it was 13.3 µL/min/1e6 cells; in series [2] (with 2.5 μM azamulin (CYP3A4 mechanism-based inhibitor), 0.5 μM Compound 6, 2.5 μM azamulin (CYP3A4 inhibitor), read-out: CLint, Azamulin) it was 9.15 µL/min/1e6 cells.
